Assay results: patent US20250179050A1, “POLYMORPH AS THYROID HORMONE RECEPTOR AGONISTS AND USE THEREOF” (XIZANG HAISCO PHARMACEUTICAL CO., LTD., priority 2022, published 2025)

Assays:
Type in all cases: physicochemical
[1] = Thermal crystal transformation test (hot stage, XRPD)
Protocol: The present invention further provides a method for preparing the polymorph of any one of Form A to Form Z, including: • (1) suspension method: adding a crude free base of the compound of formula I (which can be prepared according to the methods described in WO 2019240938 A1) to a selected single or binary solvent until a suspension is formed and stirring same under suspension at room temperature to 50° C. for a period of time (e.g., 1 h to 3 days, or 2 h to 24 h, or 2 h to 12 h, or 3 h to 5 h), and then centrifuging and separating the suspension, followed by drying, to obtain the product; or • (2) Anti-solvent crystallization method: adding a crude free base of the compound of formula I to an appropriate amount of a good solvent until completely dissolved, taking an amount of the solution and dropwise adding same to a poor solvent or dropwise adding a poor solvent to the solution, and stirring same to precipitate a solid, followed by separation and drying to obtain the product; or • (3) cooling method: adding a crude free base of the compound of formula I to an appropriate amount of a solvent at 50-80° C. until the solid is just completely dissolved, and transferring the solution to an environment at room temperature for cooling, followed by leaving to stand or crystallization under stirring, separation and drying to obtain the product; or • (4) vapor diffusion method: dropwise adding an appropriate amount of a good solvent to an amount of a crude free base of the compound of formula I at room temperature to completely dissolve the sample or formulating same as a saturated solution of a good solvent; and separately taking an amount of the solution, and leaving the clear solution to stand in a poor solvent atmosphere at room temperature until a solid precipitates out, followed by separation, to obtain the product; or • (5) thermal crystal transformation method: placing an amount of the sample on a glass plate on a hot stage, heating same to the target temperature at a rate (e.g., 5-20° C./min, or 10-15° C./min), and maintaining the temperature for a period of time (e.g., 0.5-5 min, or 1-3 min, or 1-2 min), followed by naturally cooling down to room temperature to obtain a solid.
The different crystal forms, as raw materials, were heated to the target temperature on a hot table and held for 1 min, and cooled to room temperature to obtain solids for the XRPD test.

[2] = Crystal form on leaving to stand at room temperature; conditions: room temperature for 3 days
Protocol: To 100 mg of the compound of formula I prepared in Example 1, 1 ml of methanol was added and heated to reflux. 1 ml of acetonitrile was added dropwise, slowly cooled to room temperature, stirred for 3-5 h and centrifuged, and the resulting solid was dried under vacuum overnight at room temperature to give Form U. Form U of the compound of formula I was characterized by XRPD, DSC and TGA, as shown in FIGS. 41-42, respectively. […] Based on the integration results, the roughly estimated mass percentage is about 5.2%. In summary, Form U is a solvate of acetonitrile in a ratio of 1:1 of the compound to acetonitrile.

[3] = Stability test 2: 40° C.±2° C., 75% RH±5% RH, HPLC related substances and crystal form; conditions: for Crystal form / Related Substances (%) Maximum individual impurity / Related Substances (%) Total impurity: 40° C.±2° C.
Protocol: The Form C sample was measured using the HPLC method at 40° C.±2° C., 75% RH±5% RH at months 0, 1, 2, 3, and 6 using a double layer pharmaceutical low density polyethylene bag as an inner wrap and a polyester/aluminum/polyethylene pharmaceutical composite bag as an outer wrap.

[4] = Stability test 4: 25° C.±2° C., 60% RH±5% RH, HPLC related substances; conditions: for Crystal form / Related Substances (%) Maximum individual impurity / Related Substances (%) Total impurity: 25° C.±2° C.
Protocol: The Form C sample was measured using the HPLC method at 25° C.±2° C., 60% RH±5% RH at months 0, 3, 6, 9, and 12 using a double layer pharmaceutical low density polyethylene bag as an inner wrap and a polyester/aluminum/polyethylene pharmaceutical composite bag as an outer wrap.

[5] = Dynamic moisture sorption and desorption analysis (DVS)
Protocol: Dynamic Moisture Sorption and Desorption Analysis The dynamic moisture sorption and desorption analysis was determined using DVS Intrinsic (SMS, UK). The test was carried out in a gradient mode with a humidity change of 50%-95%-0%-50%, and a humidity change of 10% per gradient in the range of 0% to 90%, and the gradient endpoint was determined in dm/dt, with the gradient endpoint being dm/dt less than 0.002% and held for 10 minutes. After the test was complete, XRPD analysis of the sample was carried out to confirm whether the solid morphology has changed.

[6] = Stability test 1: high temperature, high humidity, light, accelerated conditions, XRPD; conditions: 15 days
Protocol: Around 20 mg of samples were weighed into weighing bottles, stored under high temperature (60° C.), high humidity (25° C., 92.5% RH), light (25° C., 4500 Lux), accelerated (40° C., 75% RH) conditions, respectively, and samples were collected at days 7 and 15 for XRPD characterization.

[7] = Stability test 3: 5° C.±3° C., HPLC related substances; conditions: for Crystal form / Related Substances (%) Maximum individual impurity / Related Substances (%) Total impurity: 5° C.±3° C.
Protocol: The Form C sample was measured using the HPLC method at 5° C.±3° C. at months 0, 3, 6, 9, and 12 using a double layer pharmaceutical low density polyethylene bag as an inner wrap and a polyester/aluminum/polyethylene pharmaceutical composite bag as an outer wrap.

[8] = Stability test 5: 30° C.±2° C., 65% RH±5% RH, HPLC related substances; conditions: for Crystal form / Related Substances (%) Maximum individual impurity / Related Substances (%) Total impurity: 30° C.±2° C.
Protocol: The Form C sample was measured using the HPLC method at 30° C.±2° C., 65% RH±5% RH at months 0, 3, 6, 9, and 12 using a double layer pharmaceutical low density polyethylene bag as an inner wrap and a polyester/aluminum/polyethylene pharmaceutical composite bag as an outer wrap.

SMILES: [2H]C([2H])([2H])[C@@H]1CCc2c(Oc3c(Cl)cc(-n4nc(C#N)c(=O)[nH]c4=O)cc3Cl)n[nH]c(=O)c21 [Form U, (R)-2-(3,5-dichloro-4-((7-(methyl-d3)-1-oxo-2,5,6,7-tetrahydro-1H-cyclopenta [d]pyridazin-4-yl)oxy)phenyl)-3,5-dioxo-2,3,4,5-tetrahydro-1,2,4-triazine-6-carbonitrile]
- crystal form after thermal crystal transformation ([1]; heated to 250° C.): Form C
- Results (crystal form after thermal crystal transformation, XRPD) ([1]; target temperature 250° C., heating rate 10° C./min, holding time 1 min): Form C
- crystal form after leaving to stand [2]: Form L

SMILES: [2H]C([2H])([2H])[C@@H]1CCc2c(Oc3c(Cl)cc(-n4nc(C#N)c(=O)[nH]c4=O)cc3Cl)n[nH]c(=O)c21 [Form C, (R)-2-(3,5-dichloro-4-((7-(methyl-d3)-1-oxo-2,5,6,7-tetrahydro-1H-cyclopenta [d]pyridazin-4-yl)oxy)phenyl)-3,5-dioxo-2,3,4,5-tetrahydro-1,2,4-triazine-6-carbonitrile]
- Crystal form ([3]; 0 months): Form C
- Related Substances (%) Maximum individual impurity ([3]; 0 months): 0.05%
- Related Substances (%) Total impurity ([3]; 0 months): 0.26%
- Crystal form ([3]; 1 month): Form C
- Related Substances (%) Maximum individual impurity ([3]; 1 month): 0.05%
- Related Substances (%) Total impurity ([3]; 1 month): 0.25%
- Crystal form ([3]; 2 months): Form C
- Related Substances (%) Maximum individual impurity ([3]; 2 months): 0.05%
- Related Substances (%) Total impurity ([3]; 2 months): 0.26%
- Crystal form ([3]; 3 months): Form C
- Related Substances (%) Maximum individual impurity ([3]; 3 months): 0.05%
- Related Substances (%) Total impurity ([3]; 3 months): 0.26%
- Crystal form ([3]; 6 months): Form C
- Related Substances (%) Maximum individual impurity ([3]; 6 months): 0.05%
- Related Substances (%) Total impurity ([3]; 6 months): 0.28%
- stability (related substances) ([3]; within 6 months at 40° C.±2° C.): good stability
- Crystal form ([4]; 0 months): Form C
- Related Substances (%) Maximum individual impurity ([4]; 0 months): 0.05%
- Related Substances (%) Total impurity ([4]; 0 months): 0.26%
- Crystal form ([4]; 3 months): Form C
- Related Substances (%) Maximum individual impurity ([4]; 3 months): 0.05%
- Related Substances (%) Total impurity ([4]; 3 months): 0.27%
- Crystal form ([4]; 6 months): Form C
- Related Substances (%) Maximum individual impurity ([4]; 6 months): 0.05%
- Related Substances (%) Total impurity ([4]; 6 months): 0.26%
- Crystal form ([4]; 9 months): Form C
- Related Substances (%) Maximum individual impurity ([4]; 9 months): 0.05%
- Related Substances (%) Total impurity ([4]; 9 months): 0.26%
- Crystal form ([4]; 12 months): Form C
- Related Substances (%) Maximum individual impurity ([4]; 12 months): 0.05%
- Related Substances (%) Total impurity ([4]; 12 months): 0.27%
- stability (related substances) ([4]; within 12 months at 25° C.±2° C.): good stability
- hygroscopicity ([5]; DVS 50%-95%-0%-50% humidity): almost no hygroscopicity
- DVS weight loss ([5]; at 0% humidity): 0.13%
- DVS weight gain ([5]; at 95% humidity): 0.20%
- crystal form after the DVS test (XRPD) ([5]; samples after the DVS test): no change in crystal form
- crystal form stability (XRPD) ([6]; accelerated (40° C., 75% RH)): no change in crystal form
- crystal form stability (XRPD) ([6]; high humidity (25° C., 92.5% RH)): no change in crystal form
- crystal form stability (XRPD) ([6]; high temperature (60° C.)): no change in crystal form
- crystal form stability (XRPD) ([6]; light (25° C., 4500 Lux)): no change in crystal form
- Crystal form ([7]; 0 months): Form C
- Related Substances (%) Maximum individual impurity ([7]; 0 months): 0.05%
- Related Substances (%) Total impurity ([7]; 0 months): 0.26%
- Crystal form ([7]; 3 months): Form C
- Related Substances (%) Maximum individual impurity ([7]; 3 months): 0.05%
- Related Substances (%) Total impurity ([7]; 3 months): 0.27%
- Crystal form ([7]; 6 months): Form C
- Related Substances (%) Maximum individual impurity ([7]; 6 months): 0.05%
- Related Substances (%) Total impurity ([7]; 6 months): 0.26%
- Crystal form ([7]; 9 months): Form C
- Related Substances (%) Maximum individual impurity ([7]; 9 months): 0.05%
- Related Substances (%) Total impurity ([7]; 9 months): 0.26%
- Crystal form ([7]; 12 months): Form C
- Related Substances (%) Maximum individual impurity ([7]; 12 months): 0.05%
- Related Substances (%) Total impurity ([7]; 12 months): 0.26%
- stability (related substances) ([7]; within 12 months at 5° C.±3° C.): good stability
- Crystal form ([8]; 0 months): Form C
- Related Substances (%) Maximum individual impurity ([8]; 0 months): 0.05%
- Related Substances (%) Total impurity ([8]; 0 months): 0.26%
- Crystal form ([8]; 3 months): Form C
- Related Substances (%) Maximum individual impurity ([8]; 3 months): 0.05%
- Related Substances (%) Total impurity ([8]; 3 months): 0.26%
- Crystal form ([8]; 6 months): Form C
- Related Substances (%) Maximum individual impurity ([8]; 6 months): 0.05%
- Related Substances (%) Total impurity ([8]; 6 months): 0.27%
- Crystal form ([8]; 9 months): Form C
- Related Substances (%) Maximum individual impurity ([8]; 9 months): 0.05%
- Related Substances (%) Total impurity ([8]; 9 months): 0.25%
- Crystal form ([8]; 12 months): Form C
- Related Substances (%) Maximum individual impurity ([8]; 12 months): 0.05%
- Related Substances (%) Total impurity ([8]; 12 months): 0.26%
- stability (related substances) ([8]; within 12 months at 30° C.±2° C.): good stability
